According to patent US20110098219A1, “System for Curing Hepatic Cancer with Leptin” (KAOHSIUNG MEDICAL UNIVERSITY, priority 2009, published 2011):

Experiments:
Format in all cases: cell-based
[1] = system: liver cancer cells; assay: Flow cytometry, cell cycle of liver cancer cells; conditions: MPA only, 24 hours
Experimental: Please refer to FIG. 6A and FIG. 6B, which are views showing effect of MPA+leptin on cell cycle. As shown in the figures, for further recognizing role of MPA+leptin for liver cancer cells, the preferred embodiment applies leptin only, MPA only and MPA+leptin on liver cancer cells for 24 hours and a flow cytometry is used to show their effects on cell cycle. Furthermore, sub-G1/apoptosis parts in the cell cycle are analyzed through student's t-test.

[2] = biological target: T1, leptin receptor and progesterone receptor (Homo sapiens, UniProt P06401); assay: Immunoprecipitation and immunofluorescent staining, receptor interaction
T1 construct: endogenous in cells
T1 sequence (P06401 1-933): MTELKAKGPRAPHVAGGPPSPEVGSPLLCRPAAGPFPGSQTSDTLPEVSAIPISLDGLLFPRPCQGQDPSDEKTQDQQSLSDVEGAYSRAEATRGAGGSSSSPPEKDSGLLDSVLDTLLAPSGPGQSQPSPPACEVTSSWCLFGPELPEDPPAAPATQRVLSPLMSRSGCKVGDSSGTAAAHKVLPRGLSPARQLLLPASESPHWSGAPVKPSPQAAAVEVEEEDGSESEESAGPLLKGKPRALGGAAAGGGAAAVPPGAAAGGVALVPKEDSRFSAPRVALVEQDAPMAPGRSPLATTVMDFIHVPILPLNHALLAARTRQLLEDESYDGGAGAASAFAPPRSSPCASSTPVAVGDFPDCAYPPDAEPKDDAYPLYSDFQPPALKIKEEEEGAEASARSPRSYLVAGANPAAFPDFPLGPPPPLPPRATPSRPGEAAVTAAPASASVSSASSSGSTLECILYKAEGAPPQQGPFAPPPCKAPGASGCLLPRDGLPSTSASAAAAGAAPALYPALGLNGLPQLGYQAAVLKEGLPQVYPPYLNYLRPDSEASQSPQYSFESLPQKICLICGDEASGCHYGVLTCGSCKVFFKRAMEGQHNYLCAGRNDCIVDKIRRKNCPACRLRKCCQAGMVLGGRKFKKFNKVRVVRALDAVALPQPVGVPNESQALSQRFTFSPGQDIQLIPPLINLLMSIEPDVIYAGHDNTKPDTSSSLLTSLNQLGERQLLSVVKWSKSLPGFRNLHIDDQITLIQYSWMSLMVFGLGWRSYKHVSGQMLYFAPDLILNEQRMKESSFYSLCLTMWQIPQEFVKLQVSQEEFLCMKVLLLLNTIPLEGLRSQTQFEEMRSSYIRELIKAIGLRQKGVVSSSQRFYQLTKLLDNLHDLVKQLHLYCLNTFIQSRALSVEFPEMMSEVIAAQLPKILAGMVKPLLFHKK
T1 sequence (P48357 22-1165 partner): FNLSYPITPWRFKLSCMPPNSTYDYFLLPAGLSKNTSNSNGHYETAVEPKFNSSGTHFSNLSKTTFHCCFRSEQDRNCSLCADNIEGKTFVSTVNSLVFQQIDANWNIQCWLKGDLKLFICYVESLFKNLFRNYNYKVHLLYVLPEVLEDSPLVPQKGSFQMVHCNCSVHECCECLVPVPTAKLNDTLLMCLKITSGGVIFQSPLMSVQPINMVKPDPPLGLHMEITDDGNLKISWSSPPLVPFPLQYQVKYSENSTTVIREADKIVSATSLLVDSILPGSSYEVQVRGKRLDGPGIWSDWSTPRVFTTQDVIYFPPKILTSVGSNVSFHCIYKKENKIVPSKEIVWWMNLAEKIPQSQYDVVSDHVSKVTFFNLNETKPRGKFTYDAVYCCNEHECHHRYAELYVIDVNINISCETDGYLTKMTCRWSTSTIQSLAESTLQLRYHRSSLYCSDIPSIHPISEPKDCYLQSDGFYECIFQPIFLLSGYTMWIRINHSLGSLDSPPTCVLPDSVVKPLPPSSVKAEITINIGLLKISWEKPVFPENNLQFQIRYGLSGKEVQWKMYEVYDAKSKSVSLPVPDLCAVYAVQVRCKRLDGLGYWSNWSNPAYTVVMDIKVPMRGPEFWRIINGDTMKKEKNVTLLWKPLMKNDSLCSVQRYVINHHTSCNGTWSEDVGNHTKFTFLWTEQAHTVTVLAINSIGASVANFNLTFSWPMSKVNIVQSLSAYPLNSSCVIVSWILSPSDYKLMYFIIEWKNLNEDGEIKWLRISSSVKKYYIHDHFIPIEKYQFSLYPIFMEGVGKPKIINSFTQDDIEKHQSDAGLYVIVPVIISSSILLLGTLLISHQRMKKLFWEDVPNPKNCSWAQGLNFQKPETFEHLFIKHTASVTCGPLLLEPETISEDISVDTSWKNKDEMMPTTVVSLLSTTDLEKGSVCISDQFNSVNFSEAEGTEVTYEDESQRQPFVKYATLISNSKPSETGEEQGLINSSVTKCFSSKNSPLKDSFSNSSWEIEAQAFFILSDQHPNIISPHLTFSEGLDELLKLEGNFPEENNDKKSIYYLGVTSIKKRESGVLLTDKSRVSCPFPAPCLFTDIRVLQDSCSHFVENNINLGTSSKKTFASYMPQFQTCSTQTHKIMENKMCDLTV
Experimental: Please refer to FIG. 8A and FIG. 8B, which are views showing interaction between a leptin receptor and a progesterone receptor through immunoprecipitation and immunofluorescent staining. As shown in the figures, for acknowledging interaction between a leptin receptor and a progesterone receptor, cellular proteins are processed through immunoprecipitation and western blotting with anti-pgR after liver cancer cells are applied with leptin only, MPA only and MPA+leptin for 30 minutes separately. […] The same results are shown through immunofluorescent staining. After the cells are processed for 10 minutes, the progesterone receptor is dyed with FITC; the leptin receptor is dyed with Texas-Red; and cell membrane is dyed with phalloidin, which are observed with fluoresce microscope under 40×. […] Thus, it is confirmed that the leptin receptor and the progesterone receptor interact to work on the liver cancer cells.

[3] = system: STAT- and MAPK-related signal paths; assay: Protein expression of STAT- and MAPK-related signal paths in normal liver cell line
Experimental: Please refer to FIG. 17A to FIG. 18B, which are views showing epithelial cell line of normal liver treated with MPA+leptin for 24 hours and 48 hours respectively; and views showing STAT3- and MAPK-related signal paths after treating cell line of normal liver with MPA+leptin. As shown in the figures, after epithelial cell line of normal liver (THLE-3) is applied with MPA+leptin for […], MPA+leptin's effect on cell growth (i.e. survival rate) is analyzed through XTT assay. […] Besides, in FIG. 18A and FIG. 18B, protein expressions for STAT- and MAPK-related signal paths are analyzed.

## CC(=O)O[C@]1(C(C)=O)CC[C@H]2[C@@H]3C[C@H](C)C4=CC(=O)CC[C@]4(C)[C@H]3CC[C@@]21C [MPA, medroxyprogesterone acetate]
[1]
  G1 and G2/M: decreased trend
  S: increased trend
  sub-G1: increasing trend
[2]; 10 minutes, immunofluorescent staining
  merged level between leptin receptor and progesterone receptor: some of the leptin receptor are merged with some of the progesterone receptor
[2]; 30 minutes, immunoprecipitation and western blotting with anti-pgR
  interaction of leptin receptor and progesterone receptor: interacted
[3]
  effect on STAT- and MAPK-related signal proteins: no obvious effect
